Data published in patent US20060251705A1 (Wyeth, priority 2005, published 2006).

What was measured:
Type in all cases: physicochemical
[1] = Simulated Y-site compatibility: subvisible particulates by light obscuration (HIAC, USP 788); conditions: for HIAC ≧10 μm / HIAC ≧25 μm: each solution before mixing, 0 Hours; for Subvisible Particulates (HIAC) ≧10 μm / Subvisible Particulates (HIAC) ≧25 μm: each before mixing, 0 hours
Description: Sub-visible particulate formation may be measured by light obscuration (HIAC) as per United States Pharmacopeia USP Chapter 788 Particulate Matter in Injections.
This time period has become standard when performing these “simulated Y-site” studies, although the actual residence time for the two solutions in the administration set may not exceed eight minutes prior to entering the venous system.
The acceptance criteria of “no incompatibility indicating change” over the four hour evaluation period is being applied to the Appearance and Description assay as well as the HIAC subvisible particulate assay. Thus, for instance, formation of visible particulates or increase of subvisible particulates would indicate an incompatibility and would result in a “Y-site incompatible” classification for that diluent or drug. In addition to the Appearance and Description and HIAC testing, the pH of the solutions are monitored “for information only.” Before mixing of the two test solutions together; Appearance and Description, HIAC subvisible particulate testing, and pH are determined on each as controls.
(§1) Testing of Controls • 1. […] The remaining volumes of the two test articles are used immediately.
(§2) Preparation and Testing of Combined Solutions • 1. […] Approximately 30 ml of the combined solution is immediately removed for 0 hour Appearance and Description, subvisible particulates by HIAC and pH testing. The beaker with the remaining solution is then recovered with Parafilm and the headspace flushed with nitrogen. • 2. The sampling and testing of 30 ml aliquots is repeated after one and four hours.
The following tests are performed immediately after sampling: • 1. Appearance and Description for color, visible particulates, and turbidity measured using a Black and White background light box with a fluorescent lamp capable of producing intensity of illumination between 2000 and 3750 lux. • 2. Sub visible particulates are measured by light obscuration (HIAC) as per United States Pharmacopeia USP Chapter 788 Particulate Matter in Injections.
(§3) All drug products are prepared per package insert directions; some drugs having wide therapeutic ranges are tested at multiple concentrations, and some drugs with different formulations are tested. A simulation of the mixing which would occur at an intravenous administration set Y-site is used, and the period for evaluation of compatibility exaggerated the generally short time that the two agents would be together prior to venous circulation. Test solutions before and after mixing are measured by visual observation, by light obscuration for subvisible particulates (HIAC), and by potentiometry over a four hour period.

[2] = Simulated Y-site compatibility: pH by potentiometric meter
Experimental: (§4) The acceptance criteria of “no incompatibility indicating change” over the four hour evaluation period is being applied to the Appearance and Description assay as well as the HIAC subvisible particulate assay. […] In addition to the Appearance and Description and HIAC testing, the pH of the solutions are monitored “for information only.” Before mixing of the two test solutions together; Appearance and Description, HIAC subvisible particulate testing, and pH are determined on each as controls.
as §1, §2
pH is measured using a potentiometric meter capable of measuring pH values reproducibly within 0.02 pH units and having electrodes suitable for pH meter use.
as §3

[3] = Compatibility of tigecycline with heparin (simulated Y-site study, overall finding); conditions: common point of administration, e.g. Y-site, without saline flush
Experimental: A study is performed to determine the compatibility of tigecycline solutions with heparin. Heparin is prepared for this study as per the directions given in the package insert. The compatibility testing is performed using a “simulated Y-site” technique developed and published by Trissel et. al. “Compatibility of Fenoldopam Mesylate with other Drugs during Simulated Y-site Administration, Am. J. Health-System Pharmacy, Vol. 60, 80-85, 2003; Trissel, et. al. “Physical Compatibility of Antithymocyte Globulin (Rabbit) with Heparin Sodium and Hydrocortisone Sodium, Vol. 60, 1650-1652, 2003; Trissel et. al. “Compatibility Screening of Bivalirudin during Simulated Y-site Administration with Other Drugs, and Trissel et. al. “Compatibility of piperacillin sodium plus tazobactum with selected drugs during simulated Y-site injection, Am. J. Hosp. Pharm., Vol. 51, 672-678, 1994. […]
as §4

[4] = Compatibility classification of intravenous diluents and drugs under simulated Y-site conditions with Tigecycline for Injection; conditions: Dobutamine final concentration 1.0 mg/ml, mixed with Tigecycline for Injection, four hour period
Experimental: as §3

[5] = Table 1: Tigecycline 1 mg/mL in NS, Heparin 10 Units/ml in NS
[6] = Table 2: Tigecycline 1 mg/mL in NS, Heparin 100 Units/ml in NS
[7] = Table 4: Tigecycline and Dobutamine solutions
[8] = Table 5: Tigecycline and Dopamine solutions
[9] = Table 6: Tigecycline and Chlorpromazine solutions
[10] = Table 4: Tigecycline and Dobutamine solutions, each before mixing, 0 hours
[11] = Table 5: Tigecycline and Dopamine solutions, each before mixing, 0 hours

Row | SMILES | HIAC ≧10 μm [1, 5] [particles/mL] | HIAC ≧25 μm [1, 5] [particles/mL] | HIAC ≧10 μm [1, 6] [particles/mL] | HIAC ≧25 μm [1, 6] [particles/mL] | Subvisible Particulates (HIAC) ≧10 μm [1, 7] [particles/ml] | Subvisible Particulates (HIAC) ≧25 μm [1, 7] [particles/ml] | Subvisible Particulates (HIAC) ≧10 μm [1, 8] [particles/ml] | Subvisible Particulates (HIAC) ≧25 μm [1, 8] [particles/ml] | Subvisible Particulates (HIAC) ≧10 μm [1, 9] [particles/ml] | Subvisible Particulates (HIAC) ≧25 μm [1, 9] [particles/ml] | pH ([2]; Table 2: Tigecycline 1 mg/mL in NS, Heparin 100 Units/ml in NS, each solution before mixing, 0 Hours) | pH [2, 10] | pH [2, 11] | compatibility with the administration of heparin [3] | Compatibility Classification [4] | pH ([2]; Table 6: Tigecycline and Chlorpromazine solutions, each before mixing, 0 hours)
1 | CN(C)c1cc(NC(=O)CNC(C)(C)C)c(O)c2c1C[C@H]1C[C@H]3[C@H](N(C)C)C(O)=C(C(N)=O)C(=O)[C@@]3(O)C(O)=C1C2=O [Tigecycline, (4S,4aS,5aR,12aS)-9-[2-(tert-butylamino)acetamido]-4,7-bis(dimethylamino)-1,4,4a,5,5a,6,11,12a-octahydro-3,10,12,12a-tetrahydroxy-1,11-dioxo-2-naphthacenecarboxamide] | 39.3 | 1.4 | 69.1 | 6.2 | 35.8 | 0.9 | 82.3 | 2.2 | 27.4 | 1.3 | 7.82 | 7.81 | 7.84 | compatible | – | –
2 | NCCc1ccc(O)c(O)c1 [Dopamine, reference compound] | – | – | – | – | – | – | 3.1 | 0.1 | – | – | – | – | 3.59 | – | – | –
3 | CC(CCc1ccc(O)cc1)NCCc1ccc(O)c(O)c1 (stereo not drawn) [Dobutamine, reference compound] | – | – | – | – | 5.9 | 0.6 | – | – | – | – | – | 4.18 | – | – | Compatible | –
4 | CN(C)CCCN1c2ccccc2Sc2ccc(Cl)cc21 [Chlorpromazine, reference compound] | – | – | – | – | – | – | – | – | 21.9 | 2.9 | – | – | – | – | – | 4.61
